# Test system: patients with RMS
# Experiment: TEMSO Phase III trial: relapses, disability progression, fatigue
# Format: in vivo, humans
# Conditions: for Hazard ratio for teriflunomide vs placebo (12-week sustained disability progression) / Hazard ratio for teriflunomide vs placebo (relapse): Cox model; for Patients with a 12-week sustained disability progression / Patients without relapse during 108 weeks: Kaplan-Meier estimate; for Fatigue Impact scale score, LS mean change from baseline: MMRM
# Description: They were required to have a score of no more than 5.5 on the Kurtzke Expanded Disability Status Scale (EDSS), a minimum of two clinical relapses in the previous 2 years or one relapse during the preceding year, but no relapses in the 60 days before randomization. During the 4 weeks prior to randomization, patients were required to be clinically stable and have signed both the informed consent form and informed consent for HIV testing.
# A treatment neurologist at each site was responsible for evaluating patient eligibility, supervision of study medication administration, recording and treating adverse events and assessing relapses, and monitoring safety assessments. An independent examining neurologist, blinded to treatment assignment, performed all EDSS scores and functional system assessments. EDSS scores were determined at screening, baseline, every 12 weeks following baseline visit, and at unscheduled relapse visits. MRI scans were performed at baseline and Weeks 24, 48, 72 and 108, and conducted according to the study protocol; image data were collected at clinical site MRI facilities.
# For suspected relapses occurring between study visits, patients were required to attend the study site within 7 days of symptom onset for objective assessment by the examining neurologist. Relapses could be treated with intravenous corticosteroids at the investigator's discretion.
# The primary study objective was to determine the effect of teriflunomide in reducing annualized relapse rate (ARR; the number of confirmed relapses per patient-year). A relapse was defined as the appearance of a new clinical sign or symptom or clinical worsening of a previous sign or symptom that had been stable for at least 30 days and persisted for a minimum of 24 hours in the absence of fever. Confirmed relapses required an increase of 1 point in at least two functional systems, or an increase of 2 points in at least one functional system (excluding bowel/bladder and cerebral function), or an increase of 0.5 points in EDSS score (1.0 for EDSS=0) from the previous clinically stable assessment.
# The key secondary endpoint was to determine the effect of teriflunomide on delaying disability progression at Week 108 as assessed by changes in EDSS. Sustained disability progression was defined as a persisting increase from baseline of at least 1.0 point on the EDSS (or at least 0.5 for patients with a baseline EDSS score greater than 5.5) for at least 12 weeks. The key prespecified MRI endpoint was the effect of teriflunomide on burden of disease (total lesion volume). Other MRI endpoints included number of gadolinium (Gd)-enhancing T1 lesions, volume of T1 hypointense lesion components (‘black holes’), number of unique active lesions and brain atrophy. Patient-reported fatigue, assessed by the Fatigue Impact Scale (FIS), was an additional secondary endpoint.
# A sample size of 360 randomized patients per group was required to provide 95% statistical power to detect relative risk reductions (RRR) of 25% in ARR after 2 years, assuming a placebo ARR of 0.74 and standard deviation of 0.626. All analyses followed an intention-to-treat (ITT) principle and all inferential analyses were performed at the 2-sided 5% level of significance. ARR was analyzed using a Poisson regression model with robust error variance. The model included the total number of confirmed relapses as the response variable, and treatment, baseline EDSS strata, and region as covariates, and log transformed duration of treatment as offset variable.
# Disability progression was analyzed using a log-rank test with time to first disability progression as the dependent variable, treatment as test variable, and region and baseline EDSS score as strata variables. Kaplan-Meier estimates and curves of the cumulative incidence were used to assess the rate of disability progression in patients across time points. […]
# [1] = 7 mg once daily oral, 108 weeks, ITT population
# [2] = 7 mg once daily oral, 108 weeks, ITT population (N = 365)
# [3] = 14 mg once daily oral, 108 weeks, ITT population
# [4] = 14 mg once daily oral, 108 weeks, ITT population (N = 358)
structure (smiles),measurement,setting,value
"C/C(O)=C(\C#N)C(=O)Nc1ccc(C(F)(F)F)cc1 [teriflunomide, (Z)-2-cyano-3-hydroxy-but-2-enoic acid-(4′-trifluoromethylphenyl)-amide]",Hazard ratio for teriflunomide vs placebo (12-week sustained disability progression),[1],0.763
same,Hazard ratio for teriflunomide vs placebo (relapse),[1],0.756
same,Adjusted Annualized Relapse Rate,[1],0.370
same,Hazard ratio reduction vs placebo (disability progression),[1],23.7%
same,No. of relapses 0 - patients (%),[1],(57.8) %
same,No. of relapses 1 - patients (%),[1],(25.2) %
same,No. of relapses 2 - patients (%),[1],(13.4) %
same,No. of relapses 3 - patients (%),[1],(2.7) %
same,No. of relapses ≧4 - patients (%),[1],(0.8) %
same,Relative Reduction in Annualized Relapse rate vs placebo,[1],31.2%
same,No. of relapses 0 - no. of patients,[2],211
same,No. of relapses 1 - no. of patients,[2],92
same,No. of relapses 2 - no. of patients,[2],49
same,No. of relapses 3 - no. of patients,[2],10
same,No. of relapses ≧4 - no. of patients,[2],3
same,Patients with a 12-week sustained disability progression,[1],21.7%
same,"Fatigue Impact scale score, LS mean change from baseline",[1],2.3
same,Patients without relapse during 108 weeks,"7 mg once daily oral, ITT population",53.7%
same,"patients who discontinued treatment due to disease progression, compared with placebo","14 mg group, p=0.02",lower number
same,Hazard ratio for teriflunomide vs placebo (12-week sustained disability progression),[3],0.702
same,Hazard ratio for teriflunomide vs placebo (relapse),[3],0.719
same,Adjusted Annualized Relapse Rate,[3],0.369
same,No. of relapses 0 - patients (%),[3],(60.6) %
same,No. of relapses 1 - patients (%),[3],(24.0) %
same,No. of relapses 2 - patients (%),[3],(9.2) %
same,No. of relapses 3 - patients (%),[3],(4.5) %
same,No. of relapses ≧4 - patients (%),[3],(1.7) %
same,No. of relapses 0 - no. of patients,[4],217
same,No. of relapses 1 - no. of patients,[4],86
same,No. of relapses 2 - no. of patients,[4],33
same,No. of relapses 3 - no. of patients,[4],16
same,No. of relapses ≧4 - no. of patients,[4],6
same,Patients with a 12-week sustained disability progression,[3],20.2%
same,"Fatigue Impact scale score, LS mean change from baseline",[3],3.8
same,Patients without relapse during 108 weeks,"14 mg once daily oral, ITT population",56.5%
same,Patient-reported fatigue (FIS scores),"all treatment groups, during the study",remained stable

# Source: US20130197080A1, “USE OF TERIFLUNOMIDE FOR TREATING MULTIPLE SCLEROSIS” (SANOFI, priority 2010, published 2013)
